This note sets out measurements from paper PMC12048343, “Discovery of a small molecule secreted clusterin enhancer that improves memory in Alzheimer’s disease mice” (npj Drug Discovery, 2025).

Experiment [1] deals with 3xTg-AD murine model of AD. Description: Chronic 6-week oral study in 3xTg-AD mice (hippocampus biomarkers, proteomics). Type of experiment: in vivo, mouse. To be noted: oral 15 mg/kg BID, 6 weeks, vs vehicle. The protocol: Brain tissue was homogenized and diluted to a protein concentration of 50 ng/mL. The Mouse Clusterin ELISA Kit (Cat#ab199079, Abcam) was performed according to the manufacturer’s protocol.
Hippocampal tissue was sonicated in TPER buffer containing 1x protease and phosphatase inhibitors (Fisher catalog # 78429) on ice. Samples were centrifuged at 16000xg for 10 min at 4 degrees C. A BCA protein quantification assay was performed on each sample in duplicate. Aliquots of 40 uL were stored in the -80 freezer.
A sample of brain homogenate (8.8 mg/mL) was tested at 10 dilutions using the Tau AlphaLISA (Revvity Cat#AL271C) (32, 64, 128, 256, 512, 1024, 2048, 4096, 8192, 16384-fold) and, separately, the anti-tau phosphor AT8 and S396 (Fisher catalogs MN1020B and 44-752 G, respectively) antibodies (2, 4, 8, 16, 32, 64, 128, 256, 512, 1024-fold). AlphaLISA assays were by loading 2 µL of the anti-tau acceptor bead mixed with anti-tau or anti-ptau biotinylate antibodies in the 384-well plate, then 2 uL sample was loaded and incubated for 1 h at room temperature. AlphaScreen Streptavidin Donor beads (2 µL, Cat#6760002S, Perkin Elmer) were added, incubated for an additional 30 minutes in the dark, and the plate was read in an Envision plate reader.
(§1) Additional assays: The Aβ1-42 ELISA assay was performed on hippocampus brain homogenate according to the manufacturer’s protocol (Fisher KHB3441). Humanin in cell culture lysate was quantify by ELISA assay, according to the manufacturer’s protocol (MyBioSourc Cat# MBS7607247). SirT1 in cell culture lysate was quantify using AlphaLISA. Cell lysate (2 μL) was added to a 384-well proxy plate preloaded with 2 µL anti-SiRT1 antibody mixture (ABCAM catalog AB110304, biotinylated (10 nM) and ABCAM catalog AB104833, acceptor bead conjugated (50 µg/mL, Cat#6772001, Perkin Elmer)) was added and incubated at room temperature for 1 hour. AlphaScreen Streptavidin Donor beads (2 µL, Cat#6760002S, Perkin Elmer) were added, incubated for an additional 30 min in the dark, and the plate was read in an Envision plate reader.
All procedures were performed in accordance with protocols approved by the UCLA Institutional Animal Care and Use Committee (IACUC) and guidelines of the NIH. Mouse strains used were C57BL/6 J (Black 6, Jackson Laboratory; JAX stock #000564). All non-AD mice were 4 to 5 mo old at the time of the experiments. […]

In experiment [2] the test system is humanin (HN) expression in SH-SY5Y cells. Description: Humanin ELISA in SH-SY5Y cell lysate. In kind it is cell-based, human. The settings on record: 200 nM, 24 h. The protocol:
as §1

In the next experiment the test system is sCLU in SH-SY5Y cells. Description: sCLU levels in SH-SY5Y cells. The settings on record: SH-SY5Y cells (Fig. S9A). Type of experiment: cell-based, human. The protocol: Cell culture supernatant (2 μL) was added to a 384-well proxy plate preloaded with AlphaLISA HiBlock buffer (2 µL, 1X, CAT#AL004C, Perkin Elmer). Then an anti-sCLU antibody mixture (2 µL, mAb J84, biotinylated (10 nM, Cat# 3717-6-1000, Mabtech) and mAb CLU aa 22-227 (Cat#AF7084, R&D Systems), Acceptor bead conjugated (50 µg/mL, Cat#6772001, Perkin Elmer)) was added and incubated at room temperature for 1 hour. AlphaScreen Streptavidin Donor beads (2 µL, Cat#6760002S, Perkin Elmer) were added, incubated for an additional 30 min in the dark, and the plate was read in an Envision plate reader.

Experiment [3] concerns human iPSC-derived neurons. In words: Neurite outgrowth assay in iPSC-derived human neurons. The settings on record: 48 h. In kind it is cell-based. The protocol: The iPSC derived human neurons were provided by the Kornblum lab to be cultured in normal growth conditions (37 °C, 5% CO2) for 2–3 days. Cells were cultured in CELLSTAR uClear 384 well plates, PS, F bottom at seeding density of 5000 cells per well coated overnight with 30 ug/mL poly-D-lysine and 2 ug/mL laminin. Media was replaced every 3 days with Lonza Primary Neuron Basal Medium (PNBM) supplemented with 2 mM L-glutamine, GA-1000, and 2% NSF-1. On day 3, cells were treated with DDL357 in doses ranging from 15,000 nM to 0.76 nM for 48 h. All compounds were diluted in 0.5% DMSO and pinned to 384 well plates with 25 µL of cell media per well with pin size of 250 nL using BioMek FX (Beckman Coulter, CA). After 48 h, media was replaced twice to ensure removal of any remaining compound residues before imaging for neurite outgrowth with Calcein-AM and Hoescht. Imaging was done at UCLA Molecular Screening Shared Resource core facility (MSSR; Robert Damoiseaux, Ph.D., Director) with ImageXPress Confocal (Molecular Devices, CA) using a 10x objective. Total neurite outgrowth was measured via a MetaXpress (Molecular Devices, CA) neurite outgrowth analysis algorithm. […] Mean neurite outgrowth per drug exposure was determined by normalizing to vehicle control (n = 60). […]

With `Cc1sc2c(c1C)C(c1ccc(Cl)cc1)=N[C@@H](CC(=O)OC1CC1)c1nnc(C)n1-2` [DDL-357], in experiment [1] (hippocampus), the “reduction of tau phosphorylation at Ser396 (p-tau/total tau)” value is given as “significant” and the “tau phosphorylation at Ser202/Thr205 (p-tau/total tau)” value is “lower, but not significantly so”. Also, in experiment [1], the “Aβ1-42 levels in brain” value was “the differences were not significant” and the “sCLU levels in brain” value is on record as “the differences were not significant”. For the same compound, the “humanin (HN) expression” value in experiment [2] is “significantly increased expression”. In addition, in the experiment on sCLU in SH-SY5Y cells, the sCLU levels result is “increasing sCLU”. For the same compound, in experiment [3], the “concentrations associated with significantly increased neurite outgrowth” value is 0.8 to 61.7 nM.
